Measured values as given in patent US9963506B2, “Human-mouse chimeric anti-CD147 antibody with non-fucosylated glycosylation” (Fourth Military Medical University, priority 2015, dated 2018).

Tests used:
NCI-H520 cells = assay: Subcutaneous xenograft model, tumor growth inhibition; assay type: in vivo, SCID mice; conditions: tail vein
Experimental: (§1) Mice injected with NCI-H520 cells subcutaneously in the right dorsal flank were treated by intravenous saline; 2 mg/kg Cisplatin and 100 mg/kg Gemcitabine; Metuzumab infusion at 2 mg/kg, 10 mg/kg and 30 mg/kg; combination of 10 mg/kg Metuzumab with 2 mg/kg Cisplatin and 100 mg/kg Gemcitabine; wherein the antibodies were injected twice weekly for 3 week consecutively, while the chemotherapeutic agents were injected once a week for 3 weeks consecutively. The tumors were measured twice a week.
(§2) Animals were housed in specific pathogen-free (SPF) condition. For the localized subcutaneous xenograft mouse model, 1×10^6 NCI-H520 or A549 cells, suspended in Hank's balanced salt solution were implanted in the right dorsal flank of male SCID mice (6-8 week old). When tumors reached a mean volume of 100 mm^3, mice were randomized into treatment cohorts (n=10 mice per group). Mice were grouped for different treatments, including Metuzumab treatment groups treated with 2 mg/kg, 10 mg/kg and 30 mg/kg Metuzumab; chemistry treatment group treated with 2 mg/kg Cisplatin and 100 mg/kg Gemcitabine; combination treatment group treated with 10 mg/kg Metuzumab with 2 mg/kg Cisplatin and 100 mg/kg Gemcitabine, or saline (control group) via tail vein, respectively. Antibody injections were administered twice weekly, for 3 weeks consecutively; chemotherapeutic agents were administered once a week, for 3 weeks consecutively. Tumor size was measured twice each week for the duration of the study using calipers. Tumor volumes were determined using the following formula: […]. Antitumor activity was assessed by calculating inhibition ratio of tumor volumes (IRTV) based on medians by using following formula: [1−average (Ttreatment (day x)−Ttreatment (day 0))/average (Tcontrol (day x)−Tcontrol (day 0))]×100%.

A549 cells = assay: as above; assay type: in vivo, SCID mice; conditions: tail vein
Experimental: as §1, with “A549” for “NCI-H520”
as §2

[1] = 2 mg/kg twice weekly for 3 weeks
[2] = 10 mg/kg twice weekly for 3 weeks
[3] = 30 mg/kg twice weekly for 3 weeks

Metuzumab: human-mouse chimeric anti-CD147 IgG1, heavy chain SEQ ID NO: 4, light chain SEQ ID NO: 3, Mannose-5 glycoform lacking fucose and xylose
inhibition ratio of tumor volumes (IRTV) (NCI-H520 cells; [1]): 49.53% | inhibition ratio of tumor volumes (IRTV) (NCI-H520 cells; [2]): 53.34% | inhibition ratio of tumor volumes (IRTV) (NCI-H520 cells; [3]): 57.75% | tumor volume inhibition rate (A549 cells; [1]): 14.78% | tumor volume inhibition rate (A549 cells; [2]): 26.52% | tumor volume inhibition rate (A549 cells; [3]): 50.64%
